# Laboratory results: patent publication US20110166348A1, “NOVEL SALT OF MORPHOLINE DERIVATIVE” (ASTELLAS PHARMA INC., priority 2008, published 2011)
# Values joined by “and” are separate entries in the source; they are usually repeats but may differ in a detail not shown here. Equal entries are not always repeated. Structures can show the parent of a compound that is named as a salt. Where two headings read alike, the source gives them in different places.
# Experiments:
# [1] = Evaluation of hygroscopicity (dynamic steam adsorption/desorption); format: physicochemical
# Protocol: Approximately 10 mg of a sample was placed in an exclusively-used quartz-made holder and measured under the conditions of a temperature: 25° C., a measurement range: relative humidity 5 to 95%, a measurement interval: relative humidity 5%. Furthermore, the handling of the devices including data processing was conducted in accordance to the methods and procedures as indicated in each device. (Device: dynamic steam adsorption/desorption measuring device SGA-100, manufactured by VTI).
# Measuring temperature: 25° C.; drying before measurement: not done; humidity at the beginning: 5% RH; maximum humidity: 95% RH; humidity at the end: 5% RH; step: 5% RH; equilibrium standard: 0.03 wt % in 5 min; maximum equilibrated time: 180 min; sampling interval: 20 sec; data recording interval: 1 min
# [2] = Evaluation of stability (residual ratio of compound A after storage, HPLC-UV); format: physicochemical
# Protocol: Evaluation of the decomposed product during storage: Approximately 5 mg of a sample was metered into a 10 mL glass mass flask, and a test was carried out in the following storage conditions.
# Condition 1: 40° C.—relative humidity 75%—opening—3 months
# Condition 2: 70° C.—light shielding—sealing—2 weeks
# Condition 3: 25° C.—D65 (1000 lux)—sealing—2 weeks
# A dissolution solvent was filled to a marked line in a mess flask including the sample after storage, the dissolved solution was taken as a sample solution, and the compound A in the sample solution was quantified. Furthermore, the detection of the compound A was carried out with UV at 254 nm and the handling of the devices including data processing was conducted in accordance to the methods and procedures as indicated in each device. (Device: LC-1100 Series manufactured by Agilent).
# Further, the quantitative value indicates the residual ratio of the compound A after the test to the compound A before the test.
# [3] = cited from earlier work
# [4] = test system: L5/L6 spinal nerve ligation models; experiment: L5/L6 spinal nerve ligation model of neuropathic pain, von Frey Test; format: in vivo, male SD rats
# Protocol: The evaluation of an analgesic effect on neuropathic pain was performed according to the method of Kim et al. using L5/L6 spinal nerve ligation models. That is, the left L5 and L6 […] nerves of male SD rats were tightly ligated with a silk thread under pentobarbital anesthesia, and thereafter, the evaluation was performed. As the assessment of pain behavior, a von Frey Test on the plantar surface of the animals was employed (Pain, 1992, Vol. 50, p. 355-363). That is, the plantar surface of the operated limb of the nerve ligation rat was stimulated by using von Frey filaments until a withdrawal response was observed, and the lowest amount of force (g) required to elicit withdrawal response was defined as a pain threshold. The evaluation of compounds was performed in a period between 7 and 14 days after the operation in which a decrease in the threshold was stably observed. On the previous day of the evaluation of compounds, a von Frey Test was performed and the rats were grouped so as to minimize the variation in the mean value of pain threshold. Each of a solvent (vehicle) and a diluted solution obtained by diluting compound A hydrochloride as a compound A with a solvent so as to give a dose of 30 mg/kg was orally administered to rats in each group. Distilled water was used as a solvent. A pain threshold was measured at 1 hour after administration. […]
# [5] = 25° C., relative humidity 5 to 95%
# [6] = Condition 1: 40° C., relative humidity 75%, opening, 3 months
# [7] = Condition 2: 70° C., light shielding, sealing, 2 weeks
# [8] = Condition 3: 25° C., D65 (1000 lux), sealing, 2 weeks
smiles,measurement,setting,value
C1=Cc2cccc(OC[C@H]3CNCCO3)c2C1.O=S(=O)(O)c1ccccc1 [benzenesulfonate],Weight change(%),[1],substantially no weight change
Br.C1=Cc2cccc(OC[C@H]3CNCCO3)c2C1 [Hydrobromide (α)],Weight change(%),[1]; [5],12.5%
same,Quantitative Values (%) (residual ratio of the compound A),[2]; [6],98%
same,Quantitative Values (%) (residual ratio of the compound A),[2]; [7],97%
same,Quantitative Values (%) (residual ratio of the compound A),[2]; [8],69%
C1=Cc2cccc(OC[C@H]3CNCCO3)c2C1.O=S(=O)(O)c1ccccc1 [Benzenesulfonate (β)],Weight change(%),[1]; [5],1.2%
same,Quantitative Values (%) (residual ratio of the compound A),[2],95% and 84% and 74%
C1=Cc2cccc(OCC3CNCCO3)c2C1.Cl (racemic) [Indeloxazine hydrochloride],Stability under normal conditions,"[3]; room temperature, tightly closed, light shielding, 36 months",stable
same,Weight increase by hygroscopicity,[3]; stored at relative humidity 93% for 14 days at around room temperature,substantially no weight increase
"C1=Cc2cccc(OC[C@H]3CNCCO3)c2C1.O=S(=O)(O)c1ccccc1 [Benzenesulfonate (α), (R)-2-[(1H-inden-7-yloxy)methyl]morpholine benzenesulfonate]",Weight change(%),[1]; [5],<0.1%
same,Quantitative Values (%) (residual ratio of the compound A),[2]; benzenesulfonate,101% and 100% and 94%
"C1=Cc2cccc(OCC3CNCCO3)c2C1 (single isomer, unassigned; (+)) [Hydrochloride, (+)-2-[(inden-7-yloxy)methyl]morpholine]",Effect on pain threshold of operated side paw,[4]; 30 mg/kg orally,improved the pain threshold in the operated side of paw to the same level as that in the normal paw
same,% Effect (recovery ratio of pain threshold),"[4]; 30 mg/kg, p.o., 1 hour after administration, mean ± SEM, normal side paw 100%, operated side paw 0%",94.5 ± 17.0 %
same,Relative humidity from which remarkably hygroscopic,"[1]; 25° C., FIG. 1",around 75%
same,Deliquescence accompanying weight change,[1]; [5],accompanied by deliquescence
same,Weight change(%),[1]; [5],48.5 (accompanied %
same,Weight change(%),"[1]; 25° C., relative humidity 5 to 95%, listed as hydrochloride of the compound A",50%
same,Relative humidity at which deliquescent,[1]; room temperature,approximately 75%
same,Quantitative Values (%) (residual ratio of the compound A),[2]; [6],55%
same,Quantitative Values (%) (residual ratio of the compound A),[2]; [7],100%
same,Quantitative Values (%) (residual ratio of the compound A),[2]; [8],52%
